# Experiments:
# rat brain homogenate = experiment: Inhibition of iron-induced lipid peroxidation (MDA quantification); format: biochemical; settings: 100 uM; FeCl2 400 uM, 37 °C, 30 min
# Experimental: The rat brain was homogenized in a Krebs buffer (15 mM HEPES, 10 mM glucose, 140 mM NaCl, 3.6 mM KCl, 1.5 mM CaCl2, 1.4 mM KH2PO4, 0.7 mM MgCl2, pH 7.4) and the supernatant separated by centrifugation at 12,000 rpm for 10 min. was used for further experiments. FeCl2 was added to a final concentration of 400 uM in the brain homogenate which was then allowed to stand at 37 °C for 30 min. for the facilitation of oxidation. Each of the test compounds was added at a concentration of 100 uM and vehicle was used as a control.
# Iron facilitates the oxidation of the brain homogenate to produce malondialdehyde (MDA), a lipid peroxidation product. Thus, the lipid peroxidation was determined by MDA quantification. The inhibitory effect of the test compounds against the lipid peroxidation was evaluated by calculating MDA reduction rate of the test compounds compared with that of the control group.
# Typically, the MDA quantification is achieved by reacting samples with 2-thiobarbituric acid (TBA) and measuring the absorbance at 530 nm. However, this method is unsuitable to treat samples on a large scale because of a boiling step. Thus, in this experiment, N-methyl-2-phenylindole was used instead of TBA. […] Bioxytech^R LPO-586 Kit was used for MDA quantification.
# RAW 264.7 cells = experiment: Inhibition of LPS-induced NO production (Griess reagent); format: cell-based, murine; settings: Mus musculus, RAW264.7, 100 uM, 24 hours
# Experimental: Using RPMI1640 media supplemented with 10% fetal bovine serum (FBS), RAW 264.7 cells (obtained from American Type Culture Collection), a murine macrophage cell line, were cultured at 37 °C in a 5% CO2 incubator. The RAW264.7 cells were harvested and cell density was adjusted to 5x10^5/ml with a RPMI medium supplemented with 0.5% FBS and plated at 5x10^4 cells/well to 96-well plates, which were then cultured for 20 hr in a CO2 incubator. After removal of the media, the cells were pre-treated for 1 hour with fresh media containing 33 uM and 100 uM of test compounds. The test compounds were dissolved in DMSO and diluted to respective concentration in the media. In order to minimize DMSO effect on the nitric oxide formation by the RAW264.7 cells in the wells, the media were allowed to contain DMSO at a concentration of 0.1 % or less.
# After completion of one hour pre-treatment, lipopolysaccharide (LPS, E. coli serotype 055:B5) was added to activate the cells, which were, then, maintained for 24 hours in a CO2 incubator. As a result of the activation of RAW264.7 cells with LPS, NO was formed. The NO released into the media was in a form of nitrite NO2^- and quantitatively measured using the Griess reagent. A control was treated only with vehicle instead of test compounds.
# The inhibitory effects of the test compounds against NO production were determined as the reduction of NO quantity compared with that of the control group.
# [1] = test system: Rat aortic smooth muscle cells; experiment: Inhibition of proliferation of vascular smooth muscle cells ([3H]-thymidine incorporation into DNA); format: cell-based; settings: [^3H]-thymidine into DNA; angiotensin II (10^-7M) stimulated = 100; 72 hr; 4320 min
# Experimental: Inhibitory effects on cell proliferation was evaluated by measurement of incorporation of [^3H]-thymidine into DNA. Rat aortic smooth muscle cells were grown in 24 well plate for 3 days to near confluence in DMEM containing 10% FBS, then DMEM containing FBS was washed out. Cells were cultured again in DMEM without serum for 48 hr to be quiescent. […] During the last 4 hours of incubation, [^3H]-thymidine (1 uCi/ml) was added. […] The samples were filtered through glass microfiber filter (GF/B. Whatmann) under vacuum. After washing the filters 3 times with 2 ml of an aqueous solution of 5% TCA, the radioactivity incorporated into DNA was counted by Liquid Scintillation Counter (Packard, TRI-CARB, 2100TR), then calculated incorporation % of [^3H]-thymidine.
# [2] = Acute oral toxicity test in rats; settings: rat, in vivo, single oral dose in 0.5% methyl cellulose, read-out: lethal dose (LD50) for oral administration
# Summary of the method: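 Six-week-old SPF SD rats, two per group, received a single oral dose of 1 g/kg suspended in 0.5% methyl cellulose (10 ml/kg). Survivors at the end of observation underwent haematology, serum chemistry, necropsy and histopathology of vital organs with macroscopic lesions.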
compound,measurement,setting,value
"COC(OC)[C@]1(C)Oc2ccc([N+](=O)[O-])cc2[C@@H](NC(=NC#N)Nc2cccc(C(F)(F)F)c2)[C@@H]1O [Example 7, (2R, 3S, 4R)-N''-cyano-N-(6-nitro-3,4-dihydro-3-hydroxy-2-methyl-2-dimethoxymethyl-2H-benzopyran-4-yl)-N'-(3-trifluoromethylphenyl)guanidine]",% Inhibition,rat brain homogenate,70%
same,inhibition at 100 µM,RAW 264.7 cells,88%
same,Incorporation %,[1],37.8%
same,LD50,[2],> 1000 mg/kg

# From patent publication EP1228058B1, “BENZOPYRANYL GUANIDINE DERIVATIVES, PROCESS FOR PREPARATION THEREOF, AND PHARMACEUTICAL COMPOSITIONS CONTAINING THEM” (Dongbu Hannong Chemical Co., Ltd., priority 1999, dated 2001)
